Laboratory results taken from patent publication US11033516B1, “Combination therapies with disulfiram” (Spring Discovery, Inc., priority 2020, dated 2021).

Assays:
[1] = system: T-type calcium channels (T-channels); settings: native T-currents; cited from earlier work
tyrosinase = settings: read-out: IC50, reversible inhibitor of tyrosinase; cited from earlier work
Spodoptera litura larvae = settings: cited from earlier work
[2] = system: most gram-positive and some gram-negative bacteria; settings: cited from earlier work
SAMP8 mice = settings: intragastric, 4-month-old SAMP8 mice, 2 months; cited from earlier work
CYP2C8 = CYP2C8 (Homo sapiens, UniProt P10632); settings: cited from earlier work
CYP3A4 = CYP3A4 (Homo sapiens, UniProt P08684); settings: cited from earlier work
Sequence of CYP3A4 (P08684 whole entry): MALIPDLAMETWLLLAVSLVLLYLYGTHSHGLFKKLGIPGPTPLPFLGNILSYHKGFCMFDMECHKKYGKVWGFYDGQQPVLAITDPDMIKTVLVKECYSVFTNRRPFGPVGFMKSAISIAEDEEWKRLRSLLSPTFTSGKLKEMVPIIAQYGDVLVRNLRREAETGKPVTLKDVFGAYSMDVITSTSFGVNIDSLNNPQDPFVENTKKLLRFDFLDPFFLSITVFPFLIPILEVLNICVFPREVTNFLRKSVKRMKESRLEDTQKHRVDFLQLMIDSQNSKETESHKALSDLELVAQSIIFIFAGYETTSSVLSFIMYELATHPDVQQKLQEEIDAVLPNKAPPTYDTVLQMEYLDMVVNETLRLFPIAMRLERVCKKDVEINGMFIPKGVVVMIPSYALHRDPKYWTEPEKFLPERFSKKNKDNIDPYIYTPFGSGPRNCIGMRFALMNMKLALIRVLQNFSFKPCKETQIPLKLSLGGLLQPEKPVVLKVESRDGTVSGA

CYP2C19 = CYP2C19 (Homo sapiens, UniProt P33261); settings: cited from earlier work
CYP2B6 = CYP2B6 (Homo sapiens, UniProt P20813); settings: cited from earlier work
CYP2C9 = CYP2C9 (Homo sapiens, UniProt P11712); settings: cited from earlier work
human SIRT2 = human SIRT2 (Homo sapiens, UniProt Q8IXJ6); settings: read-out: IC50, inhibition of human SIRT2; cited from earlier work
Sequence of human SIRT2 (Q8IXJ6 whole entry): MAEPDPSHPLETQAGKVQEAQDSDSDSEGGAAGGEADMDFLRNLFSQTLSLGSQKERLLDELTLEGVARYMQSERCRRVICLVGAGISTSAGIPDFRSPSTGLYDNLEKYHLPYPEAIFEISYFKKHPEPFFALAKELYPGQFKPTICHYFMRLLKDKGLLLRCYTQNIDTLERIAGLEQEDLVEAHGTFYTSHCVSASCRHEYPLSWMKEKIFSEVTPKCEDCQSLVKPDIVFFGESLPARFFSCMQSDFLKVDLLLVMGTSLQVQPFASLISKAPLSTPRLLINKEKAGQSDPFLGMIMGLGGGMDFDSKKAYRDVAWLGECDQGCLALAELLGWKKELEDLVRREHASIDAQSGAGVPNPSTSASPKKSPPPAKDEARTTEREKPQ

human SIRT1 = human SIRT1 (Homo sapiens, UniProt Q96EB6); settings: read-out: IC50, inhibition of human SIRT1; cited from earlier work
Sequence of human SIRT1 (Q96EB6 whole entry): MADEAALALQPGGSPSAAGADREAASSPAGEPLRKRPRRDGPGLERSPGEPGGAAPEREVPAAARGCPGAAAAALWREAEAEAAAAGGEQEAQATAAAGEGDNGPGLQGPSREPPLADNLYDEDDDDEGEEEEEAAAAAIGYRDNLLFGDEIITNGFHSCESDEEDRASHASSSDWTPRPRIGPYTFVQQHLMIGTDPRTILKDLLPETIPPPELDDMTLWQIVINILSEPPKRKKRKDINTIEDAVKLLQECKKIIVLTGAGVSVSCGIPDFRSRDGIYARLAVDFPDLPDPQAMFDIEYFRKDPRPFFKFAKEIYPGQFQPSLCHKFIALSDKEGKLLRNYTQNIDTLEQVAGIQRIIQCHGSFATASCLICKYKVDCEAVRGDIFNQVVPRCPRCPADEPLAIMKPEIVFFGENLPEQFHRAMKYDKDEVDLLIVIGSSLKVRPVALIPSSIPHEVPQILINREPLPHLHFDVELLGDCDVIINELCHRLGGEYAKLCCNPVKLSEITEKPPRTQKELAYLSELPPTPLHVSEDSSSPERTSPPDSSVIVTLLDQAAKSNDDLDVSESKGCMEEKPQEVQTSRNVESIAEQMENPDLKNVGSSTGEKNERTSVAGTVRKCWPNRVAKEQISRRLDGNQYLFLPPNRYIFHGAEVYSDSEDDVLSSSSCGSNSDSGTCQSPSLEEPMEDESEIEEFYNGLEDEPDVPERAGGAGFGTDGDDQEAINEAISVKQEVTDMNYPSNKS

FGFR2 = FGFR2 (Homo sapiens, UniProt P21802); settings: cited from earlier work
Sequence of FGFR2 (P21802 22-821, species assumed): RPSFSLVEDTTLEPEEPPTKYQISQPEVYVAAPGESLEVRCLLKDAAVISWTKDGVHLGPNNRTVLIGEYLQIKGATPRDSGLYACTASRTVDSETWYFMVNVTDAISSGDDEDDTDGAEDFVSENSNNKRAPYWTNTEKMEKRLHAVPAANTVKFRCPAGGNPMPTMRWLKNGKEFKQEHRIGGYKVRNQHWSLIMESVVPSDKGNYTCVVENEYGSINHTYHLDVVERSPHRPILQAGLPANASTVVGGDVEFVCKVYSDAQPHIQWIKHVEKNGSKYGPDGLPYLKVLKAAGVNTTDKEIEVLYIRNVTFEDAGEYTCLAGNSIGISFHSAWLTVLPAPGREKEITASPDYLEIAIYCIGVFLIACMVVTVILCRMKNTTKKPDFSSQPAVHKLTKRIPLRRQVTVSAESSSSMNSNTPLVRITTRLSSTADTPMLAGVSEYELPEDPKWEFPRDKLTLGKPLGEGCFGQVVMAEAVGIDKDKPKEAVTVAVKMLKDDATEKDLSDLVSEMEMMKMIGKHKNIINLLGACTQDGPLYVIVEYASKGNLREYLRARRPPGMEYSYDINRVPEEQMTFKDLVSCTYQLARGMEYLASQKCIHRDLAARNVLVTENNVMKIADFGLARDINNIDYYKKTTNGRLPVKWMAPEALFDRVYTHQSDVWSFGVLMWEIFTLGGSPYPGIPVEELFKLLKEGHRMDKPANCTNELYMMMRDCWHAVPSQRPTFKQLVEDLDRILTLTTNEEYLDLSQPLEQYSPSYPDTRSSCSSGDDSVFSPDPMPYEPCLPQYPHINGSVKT

[3] = target: fibroblast growth factor receptor 1 (FGFR1) (Homo sapiens, UniProt P11362); settings: cited from earlier work
Sequence of fibroblast growth factor receptor 1 (FGFR1) (P11362 22-822, species assumed): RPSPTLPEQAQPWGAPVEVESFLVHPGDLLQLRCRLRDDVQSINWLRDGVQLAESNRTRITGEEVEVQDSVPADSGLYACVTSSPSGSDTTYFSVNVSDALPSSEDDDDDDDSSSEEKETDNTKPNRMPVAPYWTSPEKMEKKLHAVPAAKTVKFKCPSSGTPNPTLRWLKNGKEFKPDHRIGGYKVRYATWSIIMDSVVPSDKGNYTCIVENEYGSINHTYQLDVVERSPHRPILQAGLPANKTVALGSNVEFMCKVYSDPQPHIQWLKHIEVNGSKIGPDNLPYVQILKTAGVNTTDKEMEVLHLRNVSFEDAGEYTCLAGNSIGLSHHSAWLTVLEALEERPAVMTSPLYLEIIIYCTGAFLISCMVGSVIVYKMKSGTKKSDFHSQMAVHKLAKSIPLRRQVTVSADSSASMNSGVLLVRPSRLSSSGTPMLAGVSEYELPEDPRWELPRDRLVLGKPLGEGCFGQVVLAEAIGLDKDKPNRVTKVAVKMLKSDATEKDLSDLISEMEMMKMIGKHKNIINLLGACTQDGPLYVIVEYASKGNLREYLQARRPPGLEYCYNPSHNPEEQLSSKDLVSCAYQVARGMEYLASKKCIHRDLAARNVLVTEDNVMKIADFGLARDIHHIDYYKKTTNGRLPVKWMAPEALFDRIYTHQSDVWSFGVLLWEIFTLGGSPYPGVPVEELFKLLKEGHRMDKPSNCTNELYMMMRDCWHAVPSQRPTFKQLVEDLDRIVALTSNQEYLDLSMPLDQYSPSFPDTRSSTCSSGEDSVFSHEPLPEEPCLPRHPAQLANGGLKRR

SV-129 mice = settings: 450 mg/kg during a 15-minute period, after chronic simvastatin 2 mg/kg s.c. daily for 14 days; cited from earlier work
[4] = target: N-methyl-D-aspartate receptors (NMDARs) (Homo sapiens, UniProt Q05586); settings: read-out: KB, competitive antagonist for the glycine-binding site of NMDARs; cited from earlier work
[5] = 510 mg/day, patients, cited from earlier work
S. aureus = settings: cited from earlier work
most molds = settings: for most molds; cited from earlier work
[6] = static toxicity tests; cited from earlier work
poliovirus = settings: cited from earlier work
[7] = system: vesicular stomatitis virus (VSV); settings: cited from earlier work
HSV-1 = settings: cited from earlier work
Human erythrocyte GLUT1 = target: T1, Human erythrocyte GLUT1 (Homo sapiens, UniProt P11166); settings: cited from earlier work
T1 construct: Human erythrocyte GLUT1; from tissue; host or cells: human erythrocytes

Yeast-made GLUT1 = target: T2, Yeast-made GLUT1 (Rattus norvegicus, UniProt P11167); settings: cited from earlier work
T2 construct: host or cells: yeast
T2 sequence (P11167 whole entry): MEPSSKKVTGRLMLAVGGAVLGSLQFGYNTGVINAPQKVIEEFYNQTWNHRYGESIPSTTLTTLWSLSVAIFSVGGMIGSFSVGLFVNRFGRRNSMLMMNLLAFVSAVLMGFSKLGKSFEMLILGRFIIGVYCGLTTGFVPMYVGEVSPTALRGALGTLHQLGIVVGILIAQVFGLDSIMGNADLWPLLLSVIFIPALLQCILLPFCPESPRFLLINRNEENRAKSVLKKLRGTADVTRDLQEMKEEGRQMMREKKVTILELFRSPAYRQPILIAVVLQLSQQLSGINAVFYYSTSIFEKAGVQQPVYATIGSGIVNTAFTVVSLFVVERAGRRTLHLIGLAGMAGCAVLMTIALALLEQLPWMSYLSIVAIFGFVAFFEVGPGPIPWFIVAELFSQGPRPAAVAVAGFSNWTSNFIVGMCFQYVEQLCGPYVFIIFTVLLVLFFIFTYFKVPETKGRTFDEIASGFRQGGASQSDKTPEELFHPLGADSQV

[8] = system: fever induced by lipopolysaccharide (LPS); settings: 50 or 100 mg/kg, i.p., 0 and 2 h, rats; cited from earlier work
[9] = system: carrageenan-induced edema and nociception; settings: 25, 50 or 100 mg/kg, i.p., immediately and 2 h after injection of carrageenan; cited from earlier work
COX-2 = COX-2 (Homo sapiens, UniProt P35354); settings: read-out: IC50, inhibition of COX-2 activity; cited from earlier work
TRPM8 = TRPM8 (Homo sapiens, UniProt Q7Z2W7); settings: read-out: EC50, agonist of TRPM8; cited from earlier work
hERG channel = hERG channel (Homo sapiens, UniProt Q12809); settings: read-out: IC50, hERG channel blocker; cited from earlier work
Sequence of hERG channel (Q12809 whole entry): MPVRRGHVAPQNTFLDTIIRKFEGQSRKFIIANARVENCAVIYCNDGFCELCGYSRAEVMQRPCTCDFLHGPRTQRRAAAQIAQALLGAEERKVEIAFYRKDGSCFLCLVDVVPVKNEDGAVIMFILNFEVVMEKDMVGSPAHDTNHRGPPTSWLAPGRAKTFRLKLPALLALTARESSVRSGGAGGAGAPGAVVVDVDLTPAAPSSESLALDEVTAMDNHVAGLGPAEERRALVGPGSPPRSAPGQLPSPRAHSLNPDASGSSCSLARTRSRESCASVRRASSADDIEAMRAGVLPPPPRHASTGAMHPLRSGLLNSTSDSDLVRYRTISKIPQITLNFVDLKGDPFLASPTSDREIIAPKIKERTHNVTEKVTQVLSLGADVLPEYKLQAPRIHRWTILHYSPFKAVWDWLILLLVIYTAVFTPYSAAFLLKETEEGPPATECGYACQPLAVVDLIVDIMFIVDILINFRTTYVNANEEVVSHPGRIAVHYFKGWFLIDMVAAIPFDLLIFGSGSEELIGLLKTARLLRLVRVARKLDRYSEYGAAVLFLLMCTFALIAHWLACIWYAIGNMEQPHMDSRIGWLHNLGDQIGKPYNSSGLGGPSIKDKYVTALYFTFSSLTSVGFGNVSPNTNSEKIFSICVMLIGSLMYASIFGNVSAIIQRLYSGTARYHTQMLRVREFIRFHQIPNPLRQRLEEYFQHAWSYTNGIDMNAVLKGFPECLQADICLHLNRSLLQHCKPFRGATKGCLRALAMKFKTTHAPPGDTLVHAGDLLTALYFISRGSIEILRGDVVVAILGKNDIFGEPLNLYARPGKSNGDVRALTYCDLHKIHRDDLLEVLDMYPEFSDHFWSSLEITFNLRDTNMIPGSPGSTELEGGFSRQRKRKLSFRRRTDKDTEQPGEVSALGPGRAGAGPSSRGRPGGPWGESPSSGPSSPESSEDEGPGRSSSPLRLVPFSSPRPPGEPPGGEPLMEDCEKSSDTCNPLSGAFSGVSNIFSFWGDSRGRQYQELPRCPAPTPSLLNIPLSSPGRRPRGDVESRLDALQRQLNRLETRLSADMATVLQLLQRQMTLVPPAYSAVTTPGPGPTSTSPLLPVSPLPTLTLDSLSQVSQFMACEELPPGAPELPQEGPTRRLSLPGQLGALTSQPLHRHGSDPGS

[10] = system: fibroblasts, peripheral blood mononuclear cells (PBMCs), myoblasts; assay: Reversal of aging (reducing predicted age) in cultured young/old cells contacted with disulfiram plus potentiating ingredients; settings: concentrations 0.000005 to 80 μM; potentiating ingredient up to 25 μM
THP1 HMGB1 Lucia cells = assay: Pyroptosis inhibition luciferase assay (LPS + nigericin, HMGB1 luciferase reporter, QUANTI-Luc); settings: 1 μg/ml LPS 3 h, then 10 μM nigericin 3 h
[11] = system: periodontopathic and cariogenic bacteria; settings: cited from earlier work
β-glucosidase = settings: cited from earlier work

Molecule: CCCCCCCCO [1-Octanol]
- IC50 [1]: 4 µM

Molecule: O=C(O)CCC(=O)C(=O)O [2-Ketoglutaric acid]
- IC50 (tyrosinase): 15000 µM

Molecule: CCCC=C1OC(=O)c2ccccc21 [3-Butylidenephthalide]
- LC50 larvicidal activity (Spodoptera litura larvae): activity (LC50 of 1.56 mg/g for Spodoptera

Molecule: O=C(O)c1ccc(O)cc1 [4-Hydroxybenzoic acid]
- IC50, inhibition of most gram-positive and some gram-negative bacteria [2]: of 160 μg/mL.

Molecule: CCCCC1OC(=O)c2ccccc21 (stereo not shown) [Butylphthalide]
- loss of choline acetyltransferase (ChAT)-positive neurons in the medial septal nucleus and vertical limb of the diagonal band (SAMP8 mice): diagonal band in SAMP8 mice was slowed down,
- spatial learning and memory ability (SAMP8 mice): 2 months significantly improved spatial learning a

Molecule: C[C@@H]1CC[C@H]2C(C)(C)[C@H]3C[C@@]12CC[C@@]3(C)O [Cedrol]
- inhibitory effect on CYP2C8 (CYP2C8): has weak inhibitory effect on CYP2C8,
- Ki (CYP3A4): 3.4 µM
- inhibitory effect on CYP2C19 (CYP2C19): has weak inhibitory effect on CYP2C8,
- Ki (CYP2B6): 0.9 µM
- inhibitory effect on CYP2C9 (CYP2C9): has weak inhibitory effect on CYP2C8,

Molecule: O=C1CCc2ccccc2O1 [Dihydrocoumarin]
- IC50 (human SIRT2): 295 µM
- IC50 (human SIRT1): 208 µM

Molecule: COc1cc(/C=C/C(=O)O)ccc1O [Ferulic acid (sodium)]
- IC50 (FGFR2): 12.5 µM
- IC50 [3]: 3.78 µM

Molecule: N=C(N)NCCC[C@H](N)C(=O)O [L-Arginine]
- hyperemia amplified and sustained (SV-129 mice): hyperemia (38%) and increases absolute brain

Molecule: N[C@@H](Cc1ccccc1)C(=O)O [L-Phenylalanine]
- Kb [4]: 573 µM

Molecule: C[N+](C)(C)C[C@H](O)CC(=O)[O-] [L-carnitine]
- total time for dozing off during the daytime, calculated from the sleep logs ([5]; compared with placebo-treated periods): improved the total time for dozing off during the
- serum acylcarnitine levels [5]: (Levocarnitine) efficiently increased serum acyl-
- serum triglycerides concentration [5]: carnitine levels, and reduced serum triglycerides

Molecule: CCCCCCCCCCCC(=O)O [Lauric acid]
- EC50 for S. aureus (S. aureus): 6 µg/mL

Molecule: C[C@@H]1C/C=C/C=C/C=C/C=C/[C@H](O[C@@H]2O[C@H](C)[C@@H](O)[C@H](N)[C@@H]2O)C[C@@H]2O[C@](O)(C[C@@H](O)C[C@H]3O[C@@H]3/C=C/C(=O)O1)C[C@H](O)[C@H]2C(=O)O [Natamycin]
- MIC (minimum inhibitory concentration) (most molds): concentration) of less than 10 ppm for most molds.

Molecule: CCCCCCCCC(=O)NCc1ccc(O)c(OC)c1 [Nonivamide]
- 4d-EC50 [6]: exhibits 4d-EC50 value of 5.1 mg/L in static

Molecule: CCCCCCCCOC(=O)c1cc(O)c(O)c(O)c1 [Octyl gallate]
- antiviral effect against poliovirus (poliovirus): Octyl gallate shows a marked antiviral effect
- antiviral effect against vesicular stomatitis virus (VSV) [7]: Octyl gallate shows a marked antiviral effect
- antiviral effect against HSV-1 (HSV-1): Octyl gallate shows a marked antiviral effect

Molecule: O=C(CCc1ccc(O)cc1)c1c(O)cc(O)cc1O [Phloretin]
- IC50 (Human erythrocyte GLUT1): 61 µM
- IC50 (Yeast-made GLUT1): 49 µM

Molecule: Cc1cc2nc3c(=O)[nH]c(=O)nc-3n(C[C@H](O)[C@H](O)[C@H](O)CO)c2cc1C [Riboflavin]
- fever induced by lipopolysaccharide (LPS) [8]: 2 h) also inhibited the fever induced by lipopoly-
- antinociceptive effect [9]: antinociceptive effects. The antinociceptive effect

Molecule: COc1cc(C=O)cc(OC)c1O [Syringaldehyde]
- IC50 (COX-2): 19.2 µM

Molecule: CCNC(=O)C1CC(C)CCC1C(C)C (stereo not shown) [TRPM8 antagonist WS-3]
- EC50 (TRPM8): 3.7 µM

Molecule: O=C(OC[C@H]1O[C@@H](OC(=O)c2cc(O)c(O)c(OC(=O)c3cc(O)c(O)c(O)c3)c2)[C@H](OC(=O)c2cc(O)c(O)c(OC(=O)c3cc(O)c(O)c(O)c3)c2)[C@@H](OC(=O)c2cc(O)c(O)c(OC(=O)c3cc(O)c(O)c(O)c3)c2)[C@@H]1OC(=O)c1cc(O)c(O)c(OC(=O)c2cc(O)c(O)c(O)c2)c1)c1cc(O)c(O)c(OC(=O)c2cc(O)c(O)c(O)c2)c1 [Tannic acid]
- IC50 (hERG channel): 3.4 µM

Molecule: O=C/C=C/c1ccccc1 [cinnamaldehyde, (2E)-3-Phenyl-2-propenal]
- ability to potentiate disulfiram in reversing aging of cells [10]: identified as a potentiating ingredient
- inhibition of pyroptosis (HMGB1 luciferase reporter in supernatant) (THP1 HMGB1 Lucia cells): no effect

Molecule: CC1=CCC(C(C)(C)O)CC1 (stereo not drawn) [α-Terpineol]
- antimicrobial activity against periodontopathic and cariogenic bacteria [11]: Labill, exhibits strong antimicrobial activity

Molecule: Rebaudioside A
- IC 50 (Target: β-glucosidase) (β-glucosidase): IC 50: 35.01 ug/mL
